Experiments:
Assay type in all cases: cell-based
[1] = system: MDA-MB-231 (breast cancer); experiment: Antiproliferative activity (CCK-8 cell viability), MDA-MB-231; details: Homo sapiens, 72 h; for inhibition at 3.3 µM: Compound concentration: 3.3 μM; for inhibition at 3.3 µM / inhibition at 10 µM: read-out: Antiproliferative activity in cancerous cells, MDA-MB-231 (inhibition of cell growth); for inhibition at 10 µM: Compound concentration: 10 μM
Protocol: (§1) The antiproliferative activity of a compound was determined in the following cell lines: MDA-MB-231 (breast cancer), HepG2 (liver cancer), SW480 (colon cancer), B16F10 (malignant melanoma), A431 (epidermoid carcinoma), A549 (lung adenocarcinoma), and HeLa (cervical cancer). MDA-MB-231, HepG2, SW480, B16F10, and A431 cells were cultured in Dulbecco's modified Eagle's medium (DMEM) containing 10% fetal bovine serum (FBS). HeLa cells were cultured in MEM/EBSS (MEM) containing 10% FBS. A549 cells were maintained in Kaighn's modification of Ham's F-12 medium containing 10% FBS. A Cell Counting Kit-8 (CCK-8) was used to measure the cell viability of different cells following treatment with the compound.
(§2) Briefly cells were seeded in a 96-well plate at a density of 2,000-5,000 cells/well. Following attachment, the cells were treated with the compound in media at a compound concentration of 3.3 μM, 10 μM, or 30 μM. After the cells were incubated at 37° C. for 72 h, a CCK-8 solution (10 μL) was added to each well. After incubation at 37° C. for 4 h, the absorbance value of each well was determined using a multi-well plate reader at 450 nm. The wells treated with DMSO were taken as a vehicle control. Data were also obtained similarly for all the replicates and the percentage of cell viability was determined with respect to the DMSO-treated cells. The results are summarized in Tables 2-4, wherein A represents no less than […] of cell growth; B represents no less than 30% but less than 50% inhibition of cell growth; and C represents less than 30% inhibition of cell growth.

[2] = system: HepG2 (liver cancer); experiment: Antiproliferative activity (CCK-8 cell viability), HepG2; details: Homo sapiens, 72 h; for inhibition at 3.3 µM: Compound concentration: 3.3 μM; for inhibition at 3.3 µM / inhibition at 10 µM: read-out: Antiproliferative activity in cancerous cells, HepG2 (inhibition of cell growth); for inhibition at 10 µM: Compound concentration: 10 μM
Protocol: as §1, §2

[3] = system: SW480 (colon cancer); experiment: Antiproliferative activity (CCK-8 cell viability), SW480; details: Homo sapiens, 72 h; for inhibition at 3.3 µM: Compound concentration: 3.3 μM; for inhibition at 3.3 µM / inhibition at 10 µM: read-out: Antiproliferative activity in cancerous cells, SW480 (inhibition of cell growth); for inhibition at 10 µM: Compound concentration: 10 μM; for inhibition at 30 µM: Compound concentration: 30 μM, read-out: Antiproliferative activity in cancerous cells, SW480
Protocol: as §1, §2

[4] = system: B16F10 (malignant melanoma); experiment: Antiproliferative activity (CCK-8 cell viability), B16F10; details: Mus musculus, 72 h, read-out: Antiproliferative activity in cancerous cells, B16F10 (inhibition of cell growth); for inhibition at 3.3 µM: B16-F10, Compound concentration: 3.3 μM; for inhibition at 10 µM: B16-F10, Compound concentration: 10 μM
Protocol: as §1, §2

[5] = system: A431 (epidermoid carcinoma); experiment: Antiproliferative activity (CCK-8 cell viability), A431; details: Homo sapiens, 72 h; for inhibition at 3.3 µM: A-431, Compound concentration: 3.3 μM; for inhibition at 3.3 µM / inhibition at 10 µM: read-out: Antiproliferative activity in cancerous cells, A431 (inhibition of cell growth); for inhibition at 10 µM: A-431, Compound concentration: 10 μM; for inhibition at 30 µM: A-431, Compound concentration: 30 μM, read-out: Antiproliferative activity in cancerous cells, A431
Protocol: as §1, §2

[6] = system: A549 (lung adenocarcinoma); experiment: Antiproliferative activity (CCK-8 cell viability), A549; details: Homo sapiens, 72 h; for inhibition at 3.3 µM: Compound concentration: 3.3 μM; for inhibition at 3.3 µM / inhibition at 10 µM: read-out: Antiproliferative activity in cancerous cells, A549 (inhibition of cell growth); for inhibition at 10 µM: Compound concentration: 10 μM; for inhibition at 30 µM: Compound concentration: 30 μM, read-out: Antiproliferative activity in cancerous cells, A549
Protocol: as §1, §2

[7] = system: HeLa (cervical cancer); experiment: Antiproliferative activity (CCK-8 cell viability), HeLa; details: Homo sapiens, 72 h, read-out: Antiproliferative activity in cancerous cells, HELA (inhibition of cell growth); for inhibition at 3.3 µM: Compound concentration: 3.3 μM; for inhibition at 10 µM: Compound concentration: 10 μM
Protocol: as §1, §2

Compound	inhibition at 3.3 µM [1] [%]	inhibition at 10 µM [1] [%]	inhibition at 3.3 µM [2] [%]	inhibition at 10 µM [2] [%]	inhibition at 3.3 µM [3] [%]	inhibition at 10 µM [3] [%]	inhibition at 3.3 µM [4] [%]	inhibition at 10 µM [4] [%]	inhibition at 3.3 µM [5] [%]	inhibition at 10 µM [5] [%]	inhibition at 3.3 µM [6] [%]	inhibition at 10 µM [6] [%]	inhibition at 3.3 µM [7] [%]	inhibition at 10 µM [7] [%]	inhibition at 30 µM ([1]; Compound concentration: 30 μM, read-out: Antiproliferative activity in cancerous cells, MDA-MB-231) [%]	inhibition at 30 µM ([2]; Compound concentration: 30 μM, read-out: Antiproliferative activity in cancerous cells, HepG2) [%]	inhibition at 30 µM [3] [%]	inhibition at 30 µM [5] [%]	inhibition at 30 µM [6] [%]
O=C(O)CC1=C(Cc2ccc(Oc3ccc(F)cc3)cc2)/C(=C/c2ccc(Oc3ccc(F)cc3)cc2)c2ccc(F)cc21 [A107, (Z)-2-(5-Fluoro-2-(4-(4-fluorophenoxy)benzyl)-1-(4-(4-fluorophenoxy)-benzylidene)-1H-inden-3-yl)acetic acid]	≥ 50	≥ 50	≥ 50	≥ 50	≥ 50	≥ 50	≥ 50	≥ 50	≥ 50	≥ 50	≥ 50	≥ 50	≥ 50	≥ 50	–	–	–	–	–
O=C(O)CC1=C(Cc2ccc(Oc3ccc(F)cc3)cc2)/C(=C/c2ccc(Cc3ccc(F)cc3)cc2)c2ccc(F)cc21 [A112, (Z)-2-(5-Fluoro-1-(4-(4-fluorobenzyl)benzylidene)-2-(4-(4-fluorophenoxy)-benzyl)-1H-inden-3-yl)acetic acid]	≥ 50	≥ 50	30 to 50	≥ 50	≥ 50	≥ 50	30 to 50	≥ 50	≥ 50	≥ 50	≥ 50	≥ 50	≥ 50	≥ 50	–	–	–	–	–
CC1=C(CC(O)CO)c2ccccc2/C1=C\c1ccc(Oc2ccc(F)cc2)cc1 (stereo not drawn) [A203, (Z)-3-(1-(4-(4-Fluorophenoxy)benzylidene)-2-methyl-1H-inden-3-yl)propane-1,2-diol]	< 30	≥ 50	< 30	< 30	< 30	30 to 50	< 30	≥ 50	30 to 50	≥ 50	< 30	≥ 50	< 30	≥ 50	–	–	–	–	–
CC1=C(CCOC(=O)n2ccnc2)c2cc(F)ccc2/C1=C\c1ccc(Oc2ccc(F)cc2)cc1 [A204, (Z)-2-(5-Fluoro-1-(4-(4-fluorophenoxy)benzylidene)-2-methyl-1H-inden-3-yl)ethyl 1H-imidazole-1-carboxylate]	< 30	< 30	< 30	< 30	< 30	< 30	< 30	< 30	< 30	< 30	< 30	< 30	< 30	< 30	30 to 50	< 30	30 to 50	< 30	30 to 50
CC1=C(CCOC(=O)N(C)N)c2cc(F)ccc2/C1=C\c1ccc(Oc2ccc(F)cc2)cc1 [A205, (Z)-2-(5-Fluoro-1-(4-(4-fluorophenoxy)benzylidene)-2-methyl-1H-inden-3-yl)ethyl 1-methylhydrazine-1-carboxylate]	< 30	≥ 50	30 to 50	≥ 50	< 30	< 30	< 30	< 30	< 30	< 30	< 30	< 30	30 to 50	≥ 50	–	–	30 to 50	30 to 50	30 to 50
